Results reported in patent publication US20240261323A1, “PLURI-IONIC COMPLEX FOR THE PREVENTION OR TREATMENT OF NEUROGENIC INFLAMMATION” (OLYS PHARMA SRL, priority 2021, published 2024).

What was measured:
[1] = test system: rat myelinated primary sensory neurons; assay: Neuroprotection on rat myelinated primary sensory neurons after cisplatin injury, protection protocol (2 h pretreatment); assay type: cell-based
Excerpt: (§1) Protocol of the coculture of sensory neurons and Schwann cells: Female rats with 15 days gestation were killed by cervical dislocation (Wistar rats; January Lab) and the fetuses were removed from the uterus. Embryonic DRGs were collected and placed in an icy medium of Leibovitz 15 (L15; PanBiotech, Ref P04-27055, batch: 4590720) containing 2% Penicillin-Streptomycin (PS; PanBiotech, ref: P06-07100, batch: 7390220) and 1% bovine serum albumin (BSA; PanBiotech, Ref: P06-1391100, batch: H200403). DRGs were dissociated by trypsinization for 20 minutes (min) at 37° C. (Trypsin EDTA 1×; PanBiotech, Ref: P10-023100, batch: 3590720). The reaction was stopped by the addition of Dulbecco's modified Eagle medium (DMEM; PanBiotech, Ref: P04-03600, batch: 4080720) containing DNase I grade II (0.1 mg/ml; PanBiotech, Ref: P60-37780100, batch: H181015) and 10% fetal calf serum (FCS; Invitrogen, Ref: 10270106, batch: 2232584). The cells were then mechanically dissociated by 3 passes through a 10 ml pipette. The cells were then centrifuged at 180×g for 10 min at +4° C. on a layer of BSA (3.5%) in medium L15. The supernatant was discarded and the cell pellets were resuspended in a defined culture medium consisting of Neurobasal (Invitrogen, Ref: 21103049, batch: 2176355) supplemented with 2% B27; (Invitrogen, ref: 17504-044, batch: 2193553), L-glutamine (2 mM; PanBiotech, Ref: P04-80100, batch: 3301019), 2% PS and 50 ng/mL NGF (Sigma, Ref: N1408, L batch batch: SLCG1641). The viable cells were then counted in a Neubauer cytometer using the trypan blue exclusion test. The cells were seeded at a density of 12000 cells/wells in 96-well plates (pre-coated with poly-D-lysine; Greiner, Ref: 655940, batch: E20093UL) and have been grown at 37° C. in humidified air (95%)/C02 (5%) atmosphere. Half of the middle was changed every 2 days with fresh middle. The cells are held for 7 to 12 days to allow the proliferation of Schwann cells and sensory neurons. On day 8, the medium is supplemented with 50 μg/mL of ascorbic acid (AA; Sigma, Ref 092902, batch: 05316HJ-438) to initiate the differentiation of Schwann basal cells into myelinating Schwann cells.
Cis-diammineplatin (II) dichloride (cisplatin; Sigma, ref: P4394, batch: MKCL0026) was reconstituted in medium at 10 mg/ml (stock solution). The control environment was prepared under the same conditions. […]
(§2) The following conditions were assessed: • Control medium • Control+cisplatin (12 μM, 24 h) • Pluri-ionic compositions KY21400, KY21310 or KY21200+cisplatin (12 μM, 24 h) • Pluri-ionic compositions KY21400, KY21310 or KY21200.
This study was carried out with 6 wells per condition and duplicated for validation of the results. The data taken and analyzed are the added results of the 2 studies. […]

[2] = test system: sensory neurons myelinated by Schwann cells; assay: Neuroprotection on myelinated sensory neuron/Schwann cell coculture, cisplatin poisoning, curative protocol (co-incubation 24 h); assay type: cell-based, rat
Excerpt: The in vitro model used is a culture of sensory neurons myelinated by Schwann cells (Callizot et al., 2011, Exp Cell Res 317:2374-2383). This model, miniaturized in 96 wells, makes it possible to analyze the effects of molecules on the development of sensory neurons and on the myelination of axons by Schwann cells.
as §1
Under these conditions, after 5 days of culture with AA, the myelin sheaths are detected with an anti-MAG antibody ([…]), an early marker of myelin. • A. Study of the neuroprotective properties of pluri-ionic compositions on myelinated sensory neurons after Cisplatin poisoning: curative protocol
Cis-diammineplatin (II) dichloride (cisplatin; Sigma, ref: P4394, batch: MKCL0026) was reconstituted in medium at 10 mg/ml (stock solution). The control environment was prepared under the same conditions. After 12 days of culture with AA, the primary sensory neurons were treated for 24 hours with pluri-ionic compositions in the presence or absence of cisplatin poisoning. The cisplatin preparation was used on neurons at a final concentration of 12 μM diluted in control medium for 24 hours of incubation. The pluri-ionic compositions tested are obtained by dissolution in water of lithium chloride, magnesium chloride hexahydrate and potassium chloride, and contain: • 1. KY21400: Li 10.37 mmol/kg, Mg 2.27 mmol/kg, K 16.88 mmol/kg • 2. KY21310: Li 5.76 mmol/kg, Mg 1.26 mmol/kg, K 9.38 mmol/kg • 3. KY21200: Li 1.73 mmol/kg, Mg 0.38 mmol/kg, K 2.81 mmol/kg […]

[3] = test system: sensory neurons myelinated by Schwann cells; assay: Toxicity of isolated or combined ions on sensory neurons without cisplatin; assay type: cell-based, rat; details: Table 1; isolated or combined ions (chlorides), no cisplatin
Excerpt: as §1
as §2, with “tested:” for “assessed:”, “KY21200 • Control+individual ions at various concentrations • Control+cisplatin (12 μM, 24 h)+individual ions at various concentrations” for “KY21200.”
For the evaluation of the toxicity of individual ions, the cells are fixed after 3 days of treatment. The cells are incubated with an anti-beta-tubulin mouse monoclonal antibody (1/2000, Sigma; Ref T8660-.2 mL; batch: 034M4790V) in a blocking buffer at 4° C. for 12 hours.
The cell nuclei were labeled with a fluorescent marker (Hoechst's solution, Sigma; ref: H-33258, batch: 046M4048V) in the same buffer.
For each condition, 20 images per well were taken using InCell Analyzer™ 2200 (GE Healthcare) with a magnification of 20×. The images of each well of culture were taken under the same conditions. The analysis was performed using Developer software (GE Healthcare). A total of 6 data per experimental condition was provided.
In parallel, the effect of isolated or combined ions two by two on the survival of sensory neurons and the length of neurites was also evaluated under the same conditions. The solutions are all prepared from the chlorides of the ions tested.

[4] = concentrations ranging from 0.15 mg/kg to 1.2 mg/kg, same conditions
[5] = Table 1, with cisplatin 12 μM, 24 h, composition incubated at the same time
[6] = Table 2, isolated ions with cisplatin 12 μM, 24 h
[7] = cisplatin 12 μM, 24 h, composition co-incubated

[Mn+2] [Manganese]
effect on the myelin sheath length [1, 4]: without demonstrating any significant effect | effect on neurite length [2, 4]: without demonstrating any significant effect | effect on neuron survival [2, 4]: without demonstrating any significant effect

N.N.[Cl][Pt][Cl] [cisplatin, Cis-diammineplatin (II) dichloride]
loss of neurites ([1]; cisplatin 12 μM, 24 h): 51% | cell death ([1]; cisplatin 12 μM, 24 h, composition two hours before and during cisplatin injury): 64% | loss of myelin ([1]; cisplatin 12 μM, 24 h, two-hour pre-treatment with composition): 69% | Mean percentage of neurite length relative to control [2, 5]: 35% | Mean percentage of sensory neurons number relative to control [2, 5]: 39% | Average percentage of neurite length relative to control [2, 6]: 63-75% | Mean percentage of sensory neurons number relative to control [2, 6]: 51-57% | Mean percentage of sensory neurons number relative to control ([2]; Table 4, with cisplatin (12 mm, 24 h)): 53.1% | loss of myelin [2, 7]: 78% | loss of neurites [2, 7]: 65% | cell death of sensory neurons (dead cells) ([2]; cisplatin 12 μM, 24 h, composition during the 24 h of cisplatin lesion): 61%

[K+] [K 366 mg/kg = 9.38 mmol/kg]
Mean percentage of neurite length relative to control [3]: 115% | Mean percentage of sensory neurons number relative to control [3]: 117% | Average percentage of neurite length relative to control [2, 6]: 91% | Mean percentage of sensory neurons number relative to control [2, 6]: 58%

[Cl-].[Cl-].[Mg+2] [Mg 30.8 mg/kg = 1.27 mmol/kg]
Mean percentage of neurite length relative to control [3]: 98% | Mean percentage of sensory neurons number relative to control [3]: 108%

[Cl-].[Li+] [Li 40 mg/kg = 5.8 mmol/kg]
Mean percentage of neurite length relative to control [3]: 77% | Mean percentage of sensory neurons number relative to control [3]: 97% | Average percentage of neurite length relative to control [2, 6]: 80% | Mean percentage of sensory neurons number relative to control [2, 6]: 66%
